Where a name gives a salt, the structure may show the parent alone.

The values below come from patent US20260027116A1, “Methods of Treating Chronic Graft-Versus-Host Disease Following Allogeneic Hematopoietic Stem Cell Transplantation” (Kadmon Corporation, LLC, priority 2022, published 2026).

The nature of data set [1]: solubility of belumosudil mesylate. In kind it is physicochemical. The procedure: The tablet film consists of polyvinyl alcohol, polyethylene glycol, talc, titanium dioxide and yellow iron oxide. Each 200 mg tablet is a pale yellow film-coated oblong tablet debossed with “KDM” on one side and “200” on the other side. Tablets are stored at room temperature, 20° C. to 25° C. (68° F. to 77° F.); excursions permitted from 15° C. and 30° C. (59° F. to 86° F.).

Another data set has as its system cGVHD. The note with it: in vivo; cited from earlier work.

`CC(C)NC(=O)COc1cccc(-c2nc(Nc3ccc4[nH]ncc4c3)c3ccccc3n2)c1` [Belumosudil mesylate, 2-{3-[4-(1H-indazol-5-ylamino)-2-quinazolinyl]phenoxy}-N-(propan-2-yl) acetamide methanesulfonate (1:1)]: in data set [1], the “solubility in DMF” value was “slightly soluble”, the “solubility in DMSO” value was “soluble”, the solubility in methanol result is listed as “slightly soluble” and the solubility in water result is reported as “practically insoluble”.

`C=CC(=O)N1CCC[C@@H](n2nc(-c3ccc(Oc4ccccc4)cc3)c3c(N)ncnc32)C1` [ibrutinib]: in the data set with cGVHD, the “discontinuation rate because of TEAEs” value was 43%.
